Reference: paper PMC12457078, “Inhibition of soluble epoxide hydrolase in endotoxin induced pig lung injury” (Frontiers in Pharmacology, 2025)
pIC50: −log10 of the molar value. Where two headings read alike, the source gives them in different places.

Experiments:
[1] = molecular target: T1, Recombinant porcine sEH (Sus scrofa, UniProt Q6Q2C2); assay: fluorescent activity assay (MNPC substrate), sEH inhibition potency; format: biochemical, pig
T1 construct: made in house
T1 sequence (Q6Q2C2 1-555): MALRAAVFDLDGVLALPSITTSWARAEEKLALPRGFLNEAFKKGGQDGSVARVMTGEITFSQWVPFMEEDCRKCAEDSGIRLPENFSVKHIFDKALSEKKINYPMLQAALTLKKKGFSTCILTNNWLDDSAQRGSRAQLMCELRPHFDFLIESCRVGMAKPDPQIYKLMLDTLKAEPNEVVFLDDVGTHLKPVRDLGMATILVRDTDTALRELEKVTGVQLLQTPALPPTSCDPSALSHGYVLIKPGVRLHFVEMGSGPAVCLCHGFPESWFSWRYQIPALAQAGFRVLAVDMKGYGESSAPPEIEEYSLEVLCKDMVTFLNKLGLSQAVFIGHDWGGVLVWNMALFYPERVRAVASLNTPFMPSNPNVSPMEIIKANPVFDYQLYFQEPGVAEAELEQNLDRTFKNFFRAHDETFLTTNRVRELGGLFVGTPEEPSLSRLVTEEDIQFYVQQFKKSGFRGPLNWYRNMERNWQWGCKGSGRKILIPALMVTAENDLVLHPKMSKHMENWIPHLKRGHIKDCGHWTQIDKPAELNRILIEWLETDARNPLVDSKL

[2] = liver microsomal assay (metabolic stability); format: in vitro ADME, pig; settings: pig liver microsomes, NADPH generating system, 35 min
Experimental: To further characterize the inhibitors with regard to suitability for administration in pigs, a microsomal assay was used to determine metabolic stability ([Ackley et al., 2004]) for a subset of eight inhibitors chosen for their potency and availability. Microsomal preparations from pig liver were purchased from XenoTech (Kansas City, KS, US). Microsomes, buffer and NADPH generating system were combined, and then the inhibitor was added. The reaction was stopped after 35 min with ice cold acetonitrile containing internal standard (12-[[(cyclohexylamino)carbonyl]amino]-dodecanoic acid). The amount left of parent inhibitor was determined with LC-MS/MS.

[3] = 5 min preincubation 37 °C, MNPC 5 µM, read-out: Pig sEH IC50

## O=C(Nc1cccc2ccccc12)NC1CCCCC1 [Compound 59]
[1]; [3]
  pIC50: 6.98

## O=C(O)CCCCCCCCCCCNC(=O)NC12CC3CC(CC(C3)C1)C2 [Compound 700]
[2]
  Liver microsomal stability: Amount remaining after 35 min (% of initial): 1 ± 0.1 % of initial

## CC(=O)N1CCC(NC(=O)Nc2ccc(OC(F)(F)F)cc2)CC1 [Compound 1555]
[1]
  pIC50: 6.71

## O=C(O)CCCCCCCCCCCNC(=O)Nc1ccc(OC(F)(F)F)cc1 [Compound 1663]
[1]; [3]
  pIC50: 7.40

## COC(=O)c1ccc(NC(=O)NC23CC4CC(CC(C4)C2)C3)cc1O [Compound 1671]
[1]; [3]
  pIC50: 8.30

## O=C(Nc1ccc(OC(F)(F)F)cc1)N[C@H]1CC[C@@H](Oc2ccc(C(=O)O)cc2)CC1 [Compound 1686]
[1]; [3]
  pIC50: 7.72

## O=C(Nc1ccc(OC(F)(F)F)cc1)N[C@H]1CC[C@H](Oc2ccc(C(=O)O)cc2)CC1 [Compound 1728]
[1]; [3]
  pIC50: 7.47
[2]
  Liver microsomal stability: Amount remaining after 35 min (% of initial): 78 ± 3 % of initial

## CCC(C)C(=O)N1CCC(NC(=O)Nc2ccc(OC(F)(F)F)cc2)CC1 (centres unmarked) [Compound 2385]
[1]
  pIC50: 7.72
[2]
  Liver microsomal stability: Amount remaining after 35 min (% of initial): 55 ± 3 % of initial

## CC(C)C(=O)N1CCC(NC(=O)Nc2ccc(C(F)(F)F)cc2)CC1 [Compound 2389]
[1]; [3]
  pIC50: 7.15

## CCCC(=O)N1CCC(NC(=O)Nc2ccc(C(F)(F)F)cc2)CC1 [Compound 2413]
[1]; [3]
  pIC50: 7.22

## CCC(C)C(=O)N1CCC(NC(=O)Nc2cc(C(F)(F)F)cc(C(F)(F)F)c2)CC1 (centres unmarked) [Compound 2421]
[1]; [3]
  pIC50: 6.97

## CC(C)C(=O)N1CCC(NC(=O)Nc2ccc(OC(F)(F)F)cc2)CC1 [Compound 2422]
[1]; [3]
  pIC50: 7.42

## O=C(Nc1ccc(C(F)(F)F)cc1)NC1CCN(C(=O)CC(F)(F)F)CC1 [Compound 2714]
[1]; [3]
  pIC50: 7.36

## CNc1nc(C)nc(N[C@H]2CCC[C@@H](C(=O)NCc3ccc(C#N)cc3C(F)(F)F)C2)n1 [Compound 2946]
[1]; [3]
  pIC50: 7.32
[2]
  Liver microsomal stability: Amount remaining after 35 min (% of initial): 66 ± 1 % of initial
